Measurements from patent US7157083B2, “Compositions and methods for treating retroviral infections” (priority 1998, dated 2007).
Like-named read-outs stand apart in the source and are kept apart here.

Test system: HIV-1
Settings: for % Control, Sum / Mean RT, Sum: Sum over 20, 10, 5 mg/mL
Experimental: Reverse transcriptase (RT) activity was measured in cell-free supernatants. Tritiated thymidine triphosphate (NEN) (TTP) was resuspended in distilled H2O at […]. Poly rA and oligo dT were prepared as a stock solution which was kept at −20° C. The RT reaction buffer was prepared fresh on a daily basis and consists of 125 μL 1.0 M EGTA, 125 μL d H2O, 110 μL 10% SDS, 50 μL 1.0 M Tris (pH 7.4), 50 μL 1.0 M DTT, and 40μ1.0 M MgCl2. These three solutions were mixed together in a ratio of 2 parts TTP, 1 part poly rA:oligo dT, and 1 part reaction buffer. Ten microliters of this reaction mixture was placed in a round bottom microtiter plate and 15 μL of virus containing supernatant was added and mixed. The plate was incubated at 37° C. in a water bath with a solid support to prevent submersion of the plate and incubated for 60 minutes. Following reaction, the reaction volume was spotted onto pieces of DE81 paper, washed 5 times for 5 minutes each in a 5% sodium phosphate buffer, 2 times for 1 minute each in distilled water, 2 times for 1 minute each in 70% ethanol, and then dried. Opti-Fluor O was added to each sample and incorporated radioactivity was quantitated utilizing a Wallace 1450 Microbetaplus liquid scintillation counter.
Control groups were not treated with the enzyme. The virus was then titrated on macrophage/monocyte cultures and incubated at 37° C. for 48 hours at which time the macrophages and monocytes were washed 3×, resuspended and placed in fresh wells. Naïve PBMC's were overlayed on the macrophage/monocyte cultures and incubated at 37° C. for 72 hours. The PBMC's were then separated, washed and placed in fresh wells with fresh medium and rested for 48 hours. After a 48 hour rest period, the PBMC's were challenged with HIV-1 with and without PHA, I1-2, or both. […] These various assays are presented below in Table 10 .

Hyaluronidase
% Control (Assay #1, 5 mg/mL): 97.3%
Mean RT (Assay #1, 5 mg/mL): 20882.7 cpm
% Control (Assay #1, 10 mg/mL): 27.9%
Mean RT (Assay #1, 10 mg/mL): 6000 cpm
% Control (Assay #1, 20 mg/mL): 16.9%
Mean RT (Assay #1, 20 mg/mL): 3635.7 cpm
% Control, Sum (Assay #1): 142.1%
Mean RT, Sum (Assay #1): 30518.4 cpm
% Control (Assay #2, 5 mg/mL): 20.6%
Mean RT (Assay #2, 5 mg/mL): 6548.3 cpm
% Control (Assay #2, 10 mg/mL): 26.4%
Mean RT (Assay #2, 10 mg/mL): 8391.3 cpm
% Control (Assay #2, 20 mg/mL): 10.4%
Mean RT (Assay #2, 20 mg/mL): 3298.3 cpm
% Control, Sum (Assay #2): 57.4%
Mean RT, Sum (Assay #2): 18237.9 cpm
% Control (Assay #3, 5 mg/mL): 42.7%
Mean RT (Assay #3, 5 mg/mL): 5641.7 cpm
% Control (Assay #3, 10 mg/mL): 91.2%
Mean RT (Assay #3, 10 mg/mL): 12058 cpm
% Control (Assay #3, 20 mg/mL): 90.3%
Mean RT (Assay #3, 20 mg/mL): 11940.7 cpm
% Control, Sum (Assay #3): 224.2%
Mean RT, Sum (Assay #3): 29640.4 cpm
% Control (Assay #4, 5 mg/mL): 1.9%
Mean RT (Assay #4, 5 mg/mL): 247.3 cpm
% Control (Assay #4, 10 mg/mL): 22.4%
Mean RT (Assay #4, 10 mg/mL): 2973.7 cpm
% Control (Assay #4, 20 mg/mL): 29.9%
Mean RT (Assay #4, 20 mg/mL): 3961.7 cpm
% Control, Sum (Assay #4): 54.2%
Mean RT, Sum (Assay #4): 7182.7 cpm
% Control (Assay #9, 5 mg/mL): 137.4%
Mean RT (Assay #9, 5 mg/mL): 11038 cpm
% Control (Assay #9, 10 mg/mL): 128.8%
Mean RT (Assay #9, 10 mg/mL): 10344 cpm
% Control (Assay #9, 20 mg/mL): 96.2%
Mean RT (Assay #9, 20 mg/mL): 7725.7 cpm
% Control, Sum (Assay #9): 362.4%
Mean RT, Sum (Assay #9): 29107.7 cpm
% Control (Assay #10, 5 mg/mL): 230.8%
Mean RT (Assay #10, 5 mg/mL): 13715.3 cpm
% Control (Assay #10, 10 mg/mL): 122.2%
Mean RT (Assay #10, 10 mg/mL): 7258.7 cpm
% Control (Assay #10, 20 mg/mL): 61.1%
Mean RT (Assay #10, 20 mg/mL): 3633.7 cpm
% Control, Sum (Assay #10): 414.1%
Mean RT, Sum (Assay #10): 24607.7 cpm
% Control (Assay #11, 5 mg/mL): 63.2%
Mean RT (Assay #11, 5 mg/mL): 17826.3 cpm
% Control (Assay #11, 10 mg/mL): 75.3%
Mean RT (Assay #11, 10 mg/mL): 21230 cpm
% Control (Assay #11, 20 mg/mL): 30.1%
Mean RT (Assay #11, 20 mg/mL): 8496.3 cpm
% Control, Sum (Assay #11): 168.6%
Mean RT, Sum (Assay #11): 47552.6 cpm
% Control (Assay #12, 5 mg/mL): 118.3%
Mean RT (Assay #12, 5 mg/mL): 17657 cpm
% Control (Assay #12, 10 mg/mL): 39.8%
Mean RT (Assay #12, 10 mg/mL): 5946.7 cpm
% Control (Assay #12, 20 mg/mL): 56.1%
Mean RT (Assay #12, 20 mg/mL): 8382 cpm
% Control, Sum (Assay #12): 214.2%
Mean RT, Sum (Assay #12): 31985.7 cpm
